In US20070232492A1, “Herbicidal Composition” (Ishihara Sangyo Kaisha, LTD., priority 2004, published 2007):
Where two headings read alike, the source gives them in different places.

Tests used:
Format in all cases: in vivo
[1] = test system: barnyardgrass (Echinochloa oryzicola vasing); assay: Growth inhibition of barnyardgrass in paddy soil pots, application under submerged condition, visual rating (observed value) and Colby expected value; conditions: for inhibition at 500 g/ha: 5 g/a; for inhibition at 1000 g/ha: 10 g/a
From the text: (§1) When the herbicidal activity in a case where two active ingredients are combined, is larger than the simple sum of the respective herbicidal activities of the two active ingredients (the expected activity), it is called a synergistic effect. The activity expected by the combination of two active ingredients can be calculated as follows (Colby S. R., “Weed”, vol. 15, p. 20-22, 1967). E=p+q−(p×q÷100) where p: growth inhibition rate when treated with x (g/a) of herbicide X,
(§2) q: growth inhibition rate when treated with y (g/a) of herbicide Y,
(§3) E: growth inhibition rate expected when treated with x (g/a) of herbicide X and y (g/a) of herbicide Y.
(§4) Namely, when the actual growth inhibition rate (observed value) is larger than the growth inhibition rate by the above calculation (expected value), the activity by the combination can be regarded as showing a synergistic effect.
Paddy field soil was put into a 1/10,000 are pot, and seeds of barnyardgrass (Echinochloa oryzicola vasing) were sown and left to stand under an irrigated condition with a water depth of 3.5 cm. When barnyardgrass reached 2.0 to 2.5 leaf stage, wettable powders of compound A2 and compound (B1.1) were, respectively, diluted with water and applied under submerged condition so that the active ingredients became the prescribed amounts, respectively. The state of growth was visually observed 21 days after application, and the growth inhibition rate (%) evaluated in accordance with the following evaluation standard (observed value) and the growth inhibition rate (%) calculated by the above-mentioned Colby method (expected value) are shown in Table 1.
(§5) Growth inhibition rate (%)=0% (equivalent to the non-treated area) to 100% (complete kill)
(§6) Paddy field soil was put into a 1/10,000 are pot, and seeds of barnyardgrass (Echinochloa oryzicola vasing) were sown and left to stand under an irrigated condition with a water depth of 3.5 cm. When barnyardgrass reached 2.0 to 2.5 leaf stage, wettable powders of compound A2 and compound (B2.1) were, respectively, diluted with water and applied under submerged condition so that the active ingredients became the prescribed amounts, respectively. The state of growth was visually observed 21 days after application, and evaluation and calculation were carried out in the same manner as in the above Test Example 1.
as §6, with “leaf stage, a wettable powder” for “leaf stage, wettable powders”, “a wettable powder of compound” for “stage, wettable powders of compound”, “A2 and an emulsifiable concentrate of compound (B3.1)” for “A2 and compound (B2.1)”, “of compound (B3.1) were, respectively,” for “and compound (B2.1) were, respectively,”
as §6, with “(B4.1)” for “(B2.1)”
Paddy field soil was put into a 1/10,000 are pot, and seeds of barnyardgrass (Echinochloa oryzicola vasing) were sown and left to stand under an irrigated condition with a water depth of 3.5 cm. […]

[2] = test system: flatsedge (Cyperus serotinus); assay: Growth inhibition of flatsedge (planted tubers) in paddy soil pots, application under submerged condition, visual rating and Colby expected value
From the text: as §1, §2, §3, §4, §5
(§7) Paddy field soil was put into a 1/10,000 are pot, and tubers of flatsedge (Cyperus serotinus) were planted and left to stand under an irrigated condition with a water depth of 3.5 cm. When flatsedge reached 2.8 to 3.2 leaf stage, wettable powders of compound A2 and compound (B1.2) were, respectively, diluted with water and applied under submerged condition so that the active ingredients became the prescribed amounts, respectively. The state of growth was visually observed 29 days after application, and evaluation and calculation were carried out in the same manner as in the above Test Example 1.
Paddy field soil was put into a 1/3,000 are pot, and tubers of flatsedge (Cyperus serotinus) were planted and left to stand under an irrigated condition with a water depth of 3.5 cm. When flatsedge reached 4 leaf stage, a wettable powder of compound A2 and an emulsifiable concentrate of compound C4 were, respectively, diluted with water and applied under submerged condition so that the active ingredients became the prescribed amounts, respectively. The state of growth was visually observed 21 days after application, and the growth inhibition rate (%) evaluated in the same manner as in the above Test Example 1 (observed value) and the growth inhibition rate (%) calculated by the above-mentioned Colby method (expected value) are shown in Table 32.
as §7, with “2.5” for “2.8”, “3.0” for “3.2”, “A2, compound (D2.3)” for “A2”, “(B4.1)” for “(B1.2)”, “30” for “29”, “evaluated” for “evaluation and calculation were carried out”
as §7, with “2.5” for “2.8”, “3.0” for “3.2”, “A2, compound (D2.3)” for “A2”, “(B6.1)” for “(B1.2)”, “30” for “29”, “evaluated” for “evaluation and calculation were carried out”
Paddy field soil was put into a 1/10,000 are pot, and tubers of flatsedge (Cyperus serotinus) were planted and left to stand under an irrigated condition with a water depth of 3.5 cm. When flatsedge reached 2.5 to 3.0 leaf stage, wettable powders of compound A2, compound (D2.3) and compound (B8.1) were, respectively, diluted with water and applied under submerged condition so that the active ingredients became the prescribed amounts, respectively. […]

[3] = test system: Japanese bulrush (Scirpus juncoides); assay: Growth inhibition of Japanese bulrush in paddy soil pots, application under submerged condition, visual rating and Colby expected value; conditions: 2 leaf stage, 19 days after application
From the text: as §1, §2, §3, §4, §5
(§8) Paddy field soil was put into a 1/10,000 are pot, and seeds of Japanese bulrush (Scirpus juncoides) were sown and left to stand under an irrigated condition with a water depth of 3.5 cm. When Japanese bulrush reached 2.3 to 2.6 leaf stage, a wettable powder of compound A2 and granules of compound (B7.1) were, respectively, diluted with water and applied under submerged condition so that the active ingredients became the prescribed amounts, respectively. The state of growth was visually observed 10 days after application, and evaluation and calculation were carried out in the same manner as in the above Test Example 1.
as §8, with “an emulsifiable concentrate” for “granules”, “(B3.1)” for “(B7.1)”
(§9) Paddy field soil was put into a 1/10,000 are pot, and seeds of Japanese bulrush (Scirpus juncoides) were sown and left to stand under an irrigated condition with a water depth of 3.5 cm. When Japanese bulrush reached 2 leaf stage, wettable powders of compound A2, C2 and C4 and granules of compound C6 were, respectively, diluted with water and applied under submerged condition so that the active ingredients became the prescribed amounts, respectively.
Paddy field soil was put into a 1/10,000 are pot, and seeds of Japanese bulrush (Scirpus juncoides) were sown and left to stand under an irrigated condition with a water depth of 3.5 cm. When Japanese bulrush reached 2 leaf stage, wettable powders of compound A2, C2 and C4 and granules of compound C6 were, respectively, diluted with water and applied under submerged condition so that the active ingredients became the prescribed amounts, respectively. The state of growth was visually observed 19 days after application, and the growth inhibition rate (%) evaluated in the same manner as in the above Test Example 1 (observed value) and the growth inhibition rate (%) calculated by the above-mentioned Colby method (expected value) are shown in Tables 36, 37 and 38.
as §9, with “3” for “2”, “A2” for “A2, C2”, “and” for “and C4 and granules of”, “(D2.2)” for “C6”, “respectively. […]” for “respectively.”

[4] = Echinochloa oryzicola, soil, 336 h, 2.8 to 3.4 leaf stage, 14 days after application, Test Examples 66-72, read-out: Growth inhibition rate (%) Observed
[5] = Echinochloa oryzicola, soil, 504 h, 2.0 to 2.5 leaf stage, 21 days after application, read-out: Growth inhibition rate (%) Observed

Structure (SMILES): COc1ccsc1CN(C(=O)CCl)c1c(C)cccc1C [Compound (B3.2), thenylchlor]
- inhibition at 93.8 g/ha ([1]; Echinochloa oryzicola, soil, 504 h, 0.938 g/a, 2.8 to 3.2 leaf stage, 21 days after application, read-out: Growth inhibition rate (%) Observed): 5%
- inhibition at 94 g/ha ([1]; Echinochloa oryzicola, soil, 504 h, 0.94 g/a, 2.8 to 3.2 leaf stage, 21 days after application, Test Examples 39-43, read-out: Growth inhibition rate (%) Observed): 0%
- inhibition at 187.5 g/ha ([1]; Echinochloa oryzicola, soil, 504 h, 1.875 g/a, 2.8 to 3.2 leaf stage, 21 days after application, read-out: Growth inhibition rate (%) Observed): 27%
- inhibition at 188 g/ha ([1]; Echinochloa oryzicola, soil, 504 h, 1.88 g/a, 2.8 to 3.2 leaf stage, 21 days after application, Test Examples 39-43, read-out: Growth inhibition rate (%) Observed): 15%
- inhibition at 250 g/ha ([2]; Cyperus serotinus, soil, 720 h, 2.5 g/a, 2.5 to 3.0 leaf stage, 30 days after application, Test Examples 46-60, read-out: Growth inhibition rate (%) Observed): 35%

Structure (SMILES): CS(=O)(=O)c1ccc(C(=O)C2=C(Sc3ccccc3)C3CCC(C3)C2=O)c(Cl)c1 (stereo not drawn) [Compound (B4.1), benzobicyclon]
- inhibition at 100 g/ha ([1]; Echinochloa oryzicola, soil, 504 h, 1 g/a, 2.0 to 2.5 leaf stage, 21 days after application, read-out: Growth inhibition rate (%) Observed): 13%
- inhibition at 200 g/ha ([1]; Echinochloa oryzicola, soil, 504 h, 2 g/a, 2.0 to 2.5 leaf stage, 21 days after application, read-out: Growth inhibition rate (%) Observed): 33%
- inhibition at 200 g/ha ([2]; Cyperus serotinus, soil, 720 h, 2 g/a, 2.5 to 3.0 leaf stage, 30 days after application, Test Examples 46-60, read-out: Growth inhibition rate (%) Observed): 60%

Structure (SMILES): CC(C)(NC(=O)C(Br)C(C)(C)C)c1ccccc1 (stereo not drawn) [Compound (B6.1), bromobutide]
- inhibition at 500 g/ha [1, 4]: 10%
- inhibition at 1000 g/ha [1, 4]: 10%
- inhibition at 500 g/ha [1, 5]: 0%
- inhibition at 1000 g/ha [1, 5]: 10%
- inhibition at 1000 g/ha ([2]; Cyperus serotinus, soil, 720 h, read-out: Growth inhibition rate (%) Observed): 35%

Structure (SMILES): CCN(CC)C(=O)n1cnc(S(=O)(=O)c2c(C)cc(C)cc2C)n1 [Compound (B9.1), cafenstrole]
- Growth inhibition rate (%) Observed ([1]; 0.525 g/a, 2.8 to 3.2 leaf stage, 21 days after application): 2%
- Growth inhibition rate (%) Observed ([1]; 0.788 g/a, 2.1 to 3.2 leaf stage, 21 days after application): 57%
- Growth inhibition rate (%) Observed ([1]; 0.788 g/a, 2.8 to 3.2 leaf stage, 19 days after application, Test Examples 62-65): 10%
- Growth inhibition rate (%) Observed ([1]; 1.05 g/a, 2.8 to 3.2 leaf stage, 21 days after application): 10%
- Growth inhibition rate (%) Observed ([1]; 1.58 g/a, 2.8 to 3.2 leaf stage, 19 days after application, Test Examples 62-65): 10%
- Growth inhibition rate (%) Observed ([2]; 2.1 g/a, 2.5 to 3.0 leaf stage, 30 days after application, Test Examples 46-60): 35%

Structure (SMILES): CCC1(CC2(c3cccc(Cl)c3)CO2)C(=O)c2ccccc2C1=O (stereo not drawn) [Compound (B10.1), indanofan]
- inhibition at 37.5 g/ha ([1]; Echinochloa oryzicola, soil, 504 h, 0.375 g/a, 2.8 to 3.2 leaf stage, 21 days after application, read-out: Growth inhibition rate (%) Observed): 0%
- inhibition at 75 g/ha ([1]; Echinochloa oryzicola, soil, 504 h, 0.75 g/a, 2.8 to 3.2 leaf stage, 21 days after application, read-out: Growth inhibition rate (%) Observed): 13%
- inhibition at 56.3 g/ha ([1]; Echinochloa oryzicola, soil, 528 h, 0.563 g/a, 2.1 to 3.2 leaf stage, 22 days after application, read-out: Growth inhibition rate (%) Observed): 40%
- inhibition at 150 g/ha ([2]; Cyperus serotinus, soil, 720 h, 1.5 g/a, 2.5 to 3.0 leaf stage, 30 days after application, Test Examples 46-60, read-out: Growth inhibition rate (%) Observed): 25%

Structure (SMILES): CCOC(=O)CCCOc1ccc(Cl)cc1C [Compound C4, MCPB ethyl]
- Growth inhibition rate (%) Observed ([3]; 0.5 g/a, Test Example 33): 10%
- Growth inhibition rate (%) Observed ([3]; 1.0 g/a, Test Example 33): 27%
- Growth inhibition rate (%) Observed ([3]; 1.5 g/a, Test Example 34): 20%
- Growth inhibition rate (%) Observed ([3]; 2.0 g/a, Test Example 33): 55%
- Growth inhibition rate (%) Observed ([3]; 10 g/a, Test Example 34): 68%
- Growth inhibition rate (%) Observed ([2]; 2.0 g/a, 4 leaf stage, 21 days after application): 33%
- Growth inhibition rate (%) Observed ([2]; 2.4 g/a, 4 leaf stage, 21 days after application): 57%
